According to patent EP3026118A1, “Enzymatic process for producing 3-butenal and 3-buten-1-ol” (LANXESS Deutschland GmbH, priority 2014, dated 2016):

Biological target: T1, Acetaldehyd-Dehydrogenase PS-DmpF (Pseudomonas sp., UniProt Q52060)
T1 construct: made in house; host or cells: E. coli BL21 (DE3), vector pET-21a(+)
T1 sequence (Q52060 1-312): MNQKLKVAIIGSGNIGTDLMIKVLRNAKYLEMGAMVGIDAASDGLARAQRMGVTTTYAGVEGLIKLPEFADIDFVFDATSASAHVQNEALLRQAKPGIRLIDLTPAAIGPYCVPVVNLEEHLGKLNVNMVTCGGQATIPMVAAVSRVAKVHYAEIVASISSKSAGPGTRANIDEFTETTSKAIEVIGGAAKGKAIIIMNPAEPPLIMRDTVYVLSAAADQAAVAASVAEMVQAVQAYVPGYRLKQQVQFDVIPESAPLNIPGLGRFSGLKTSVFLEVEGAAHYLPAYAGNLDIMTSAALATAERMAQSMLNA
Experiment: photometric test of inhibition of PS-DmpF by Crotonyl-CoA in mixtures with Butyryl-CoA
Assay type: biochemical
Settings: Butyryl-CoA and Crotonyl-CoA mixed in different ratios, Figur 4
Text: Im Rahmen der Photometertests wurde festgestellt, dass die Acetaldehyd-Dehydrogenase DmpF aus Pseudomonas sp. keine Aktivität gegenüber Crotonyl-CoA zeigte. Daher wurde untersucht, ob Crotonyl-CoA kein Substrat für dieses Enzym darstellt oder eine inhibitorische Wirkung auf das Enzym aufweist. Dazu wurden Butyryl-CoA, welches von der Acetaldehyd-Dehydrogenase umgesetzt wird, und Crotonyl-CoA in unterschiedlichen Verhältnissen gemischt und die Aktivität der PS-DmpF gegen diese Substratmischungen untersucht (Figur 4). Die in Figur 4 zusammengefassten Ergebnisse zeigen, dass die Aktivität der PS-DmpF abnahm, je mehr Crotonyl-CoA im Ansatz enthalten ist. Dies bedeutet, dass Crotonyl-CoA inhibierend auf die Acetaldehyd-Dehydrogenase wirkt.

inhibitorische Wirkung auf das Enzym: inhibierend
Structure (SMILES): C/C=C/C(=O)SCCNC(=O)CCNC(=O)[C@H](O)C(C)(C)COP(=O)(O)OP(=O)(O)OC[C@H]1O[C@@H](n2cnc3c(N)ncnc32)[C@H](O)[C@@H]1OP(=O)(O)O [Crotonyl-CoA]
